These results are taken from patent publication US11999746B2, “Compounds” (GlaxoSmithKline Intellectual Property Development Limited, priority 2014, dated 2024).

Assay [1] deals with T1, recombinant human Lp-PLA2 (Homo sapiens, UniProt Q13093).
T1 sequence (Q13093 22-441): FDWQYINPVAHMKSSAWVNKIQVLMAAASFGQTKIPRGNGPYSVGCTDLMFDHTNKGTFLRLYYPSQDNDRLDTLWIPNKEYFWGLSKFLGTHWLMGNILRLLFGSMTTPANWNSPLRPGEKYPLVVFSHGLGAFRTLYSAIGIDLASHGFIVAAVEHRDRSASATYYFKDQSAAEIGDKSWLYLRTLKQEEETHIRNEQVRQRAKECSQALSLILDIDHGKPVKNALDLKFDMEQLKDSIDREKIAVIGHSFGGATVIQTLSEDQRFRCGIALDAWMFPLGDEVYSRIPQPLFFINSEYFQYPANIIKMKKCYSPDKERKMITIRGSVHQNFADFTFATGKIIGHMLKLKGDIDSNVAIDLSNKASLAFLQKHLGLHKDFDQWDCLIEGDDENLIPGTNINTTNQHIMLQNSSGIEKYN
As to the kind of experiment: (1a) PED6 assay, recombinant human Lp-PLA2 (rhLp-PLA2). As to conditions: Examples 1-167 and 413-430 were tested here, one experiment or average of multiple experiments, read-out: rhLp-PLA2 (pIC50) (converted). The assay is classed as biochemical. The gist of the method: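 PED6 (2 μM final after 1:1 addition of 4 μM stock) cleavage by rhLp-PLA2 (4 nM working solution) in 50 mM HEPES pH 7.4, 150 mM NaCl, 1 mM CHAPS; compounds preincubated with enzyme 30 minutes, reaction 20 min at room temperature. Fluorescence at ex 480/em 540; pIC50 from curve fit.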

In another assay the target is T2, Lp-PLA2 in human plasma (Homo sapiens, UniProt Q13093).
T2 construct: from tissue; host or cells: pooled human plasma
T2 sequence (Q13093 22-441): T1 sequence (Q13093 22-441)
As to the kind of experiment: (3a) Lp-PLA2 human plasma Thio-PAF assay. The assay is classed as biochemical. The conditions noted are these: (3a) Thio-PAF assay, pooled human plasma; Examples 1-265 and 413-430 were tested here; read-out: pIC50 in the Lp-PLA2 human plasma assay (converted). In outline: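 Endogenous Lp-PLA2 activity in frozen pooled human plasma measured as thiol release from 2-thio-PAF, detected by CPM fluorescence (ex 380/em 485). Compound preincubation 30 min; 2-min reaction in HEPES pH 7.4 buffer with NEM, stopped with 5% TFA, read 40 min later at room temperature; values as pIC50.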

Consider `O=c1nc(OCc2cccc(F)c2)cc2n1C[C@H]1CCCN21` [Example E102, (R)-3-((3-fluorobenzyl)oxy)-7,8,8a,9-tetrahydropyrrolo[1′,2′:3,4]imidazo[1,2-c]pyrimidin-1(6H)-one], for which the IC50 in assay [1] is no more than 100 nM; at Lp-PLA2 in human plasma, no more than 10000 nM.
As to `Cn1cc(Oc2ccc(COc3cc4n(c(=O)n3)C[C@H]3CCCN43)cc2F)cn1` [Example E68, (R)-3-((3-fluoro-4-((1-methyl-1H-pyrazol-4-yl)oxy)benzyl)oxy)-7,8,8a, 9-tetrahydro pyrrolo[1′,2′:3,4]imidazo[1,2-c]pyrimidin-1(6H)-one], the IC50 was no more than 100 nM in assay [1] and no more than 10000 nM at Lp-PLA2 in human plasma.
Regarding `O=c1nc(OCc2ccc(Oc3cncc(C(F)(F)F)c3)c(F)c2)cc2n1C[C@@H]1CCCCN21` [Example E42, (S)-3-((3-fluoro-4-((5-(trifluoromethyl)pyridin-3-yl)oxy)benzyl)oxy)-6,7,8,9,9a,10-hexahydro-1H-pyrido[1′,2′:3,4]imidazo[1,2-c]pyrimidin-1-one], the IC50 was no more than 1 nM in assay [1] and no more than 100 nM at Lp-PLA2 in human plasma.
On to `O=c1nc(OCc2cc(F)c(Oc3ccnc(C(F)(F)F)c3)c(F)c2)cc2n1CC1CCCCN21` (stereo not shown) [Example E45, 3-((3,5-Difluoro-4-((2-(trifluoromethyl)pyridin-4-yl)oxy)benzyl)oxy)-6,7,8,9,9a,10-hexahydro-1H-pyrido[1′,2′:3,4]imidazo[1,2-c]pyrimidin-1-one], for which the figures for the IC50 (in assay [1]; on Lp-PLA2 in human plasma) were no more than 1 nM and no more than 100 nM, respectively.
Turning to `N#Cc1cc(COc2cc3n(c(=O)n2)CC2CCCCN32)ccc1Oc1cncc(C(F)(F)F)c1` (stereo not shown) [Example E10, 5-(((1-Oxo-6,7,8,9,9a,10-hexahydro-1H-pyrido[1′,2′:3,4]imidazo[1,2-c]pyrimidin-3-yl)oxy)methyl)-2-((5-(trifluoromethyl)pyridin-3-yl)oxy)benzonitrile], the IC50 in assay [1] is no more than 1 nM; at Lp-PLA2 in human plasma, no more than 100 nM.
On to `O=c1nc(OCc2cc(F)c(Oc3ccnc(C(F)(F)F)c3)c(F)c2)cc2n1C[C@@H]1COCCN21` [Example E119, (R)-7-((3,5-difluoro-4-((2-(trifluoromethyl)pyridin-4-yl)oxy)benzyl)oxy)-3,4, 11, 11a-tetra hydropyrimido[6′,1′:2,3]imidazo[5,1-c][1,4]oxazin-9(1H)-one], for which the IC50 in assay [1] was no more than 1 nM; on Lp-PLA2 in human plasma, no more than 100 nM.
Take `Cc1ccc(Oc2c(F)cc(COc3cc4n(c(=O)n3)C[C@H]3COCN43)cc2F)cn1` [Example E149, (S)-6-((3,5-difluoro-4-((6-methylpyridin-3-yl)oxy)benzyl)oxy)-10,10a-dihydro-1H-oxazolo[3′,4′:3,4]imidazo[1,2-c]pyrimidin-8(3H)-one]: the IC50 in assay [1] was no more than 1 nM; at Lp-PLA2 in human plasma it was no more than 100 nM.
On to `O=c1nc(OCc2cc(F)c(F)c(F)c2)cc2n1C[C@H]1COCN21` [Example E146, (S)-6-((3,4,5-trifluorobenzyl)oxy)-10,10a-dihydro-1H-oxazolo[3′,4′:3,4]imidazo[1,2-c] pyrimidin-8(3H)-one], for which the IC50 (in assay [1]; at Lp-PLA2 in human plasma) was no more than 100 nM in each case.
Consider `O=c1nc(OCc2cc(F)cc(F)c2)cc2n1C[C@H]1COCN21` [Example E147, (S)-6-((3,5-difluorobenzyl)oxy)-10,10a-dihydro-1H-oxazolo[3′,4′:3,4]imidazo[1,2-c] pyrimidin-8(3H)-one], for which the IC50 in assay [1] was no more than 100 nM; on Lp-PLA2 in human plasma, no more than 10000 nM.
Regarding `O=c1nc(OCc2ccc(F)c(F)c2)cc2n1CC1CCCCN21` (stereo not shown) [Example E5, 3-((3,4-Difluorobenzyl)oxy)-6,7,8,9,9a,10-hexahydro-1H-pyrido[1′,2′:3,4]imidazo[1,2-c] pyrimidin-1-one], the IC50 (in assay [1]; at Lp-PLA2 in human plasma) was no more than 100 nM in each case.
With `Cc1cc(Oc2c(F)cc(COc3cc4n(c(=O)n3)C[C@H]3COCCN43)cc2F)ccn1` [Example E124, (S)-7-((3,5-difluoro-4-((2-methylpyridin-4-yl)oxy)benzyl)oxy)-3,4,11,11atetrahydropyrimido[6′,1′:2,3]imidazo[5,1-c][1,4]oxazin-9(1H)-one], the values for the IC50 (in assay [1]; on Lp-PLA2 in human plasma) were 0.501 nM and no more than 100 nM, respectively.
As to `O=c1nc(OCc2cnc(Oc3ccc(Cl)c(C(F)(F)F)c3)c(F)c2)cc2n1CC1CCCN21` (stereo not shown) [Example E76, 3-((6-(4-Chloro-3-(trifluoromethyl)phenoxy)-5-fluoropyridin-3-yl)methoxy)-7,8,8a,9 tetra hydro pyrrolo[1′,2′:3,4]imidazo[1,2-c]pyrimidin-1(6H)-one], the IC50 is no more than 100 nM in assay [1] and no more than 10000 nM at Lp-PLA2 in human plasma.
As for `O=c1nc(OCc2ccc(Oc3cnc(C(F)(F)F)nc3)c(F)c2)cc2n1C[C@H]1CCCN21` [Example E69, (R)-3-((3-fluoro-4-((2-(trifluoromethyl)pyrimidin-5-yl)oxy)benzyl)oxy)-7,8,8a, 9-tetra hydropyrrolo[1′,2′:3,4]imidazo[1,2-c]pyrimidin-1(6H)-one], the IC50 (in assay [1]; at Lp-PLA2 in human plasma) was no more than 100 nM each time.
In the case of `CN1c2cc(OCc3cc(F)c(F)c(F)c3)nc(=O)n2CC12CCCCC2` [Example 422, 1′-methyl-7′-((3,4,5-trifluorobenzyl)oxy)-1′H-spiro[cyclohexane-1,2′-imidazo[1,2-c]pyrimidin]-5′(3′H)-one], the IC50 is no more than 100 nM in assay [1] and no more than 10000 nM at Lp-PLA2 in human plasma.
Taken in the same sequence, the figures for `CN1CCN2c3cc(OCc4cc(F)c(Oc5cnn(C)c5)c(F)c4)nc(=O)n3CC2C1` (stereo not shown) [Example E167, 7-((3,5-Difluoro-4-((1-methyl-1H-pyrazol-4-yl)oxy)benzyl)oxy)-2-methyl-3,4,11,11a-tetrahydro-1H-pyrazino[1,2′:3,4]imidazo[1,2-c]pyrimidin-9(2H)-one] were no more than 100 nM and no more than 10000 nM.
On to `O=c1nc(OCc2ccc(Oc3ccc(C(F)(F)F)nc3)c(F)c2)cc2n1CC1CCCCN21` (stereo not shown) [Example E48, 3-((3-Fluoro-4-((6-(trifluoromethyl)pyridin-3-yl)oxy)benzyl)oxy)-6,7,8,9,9a,10-hexahydro-1H-pyrido[1′,2′:3,4]imidazo[1,2-c]pyrimidin-1-one], for which the IC50 in assay [1] was no more than 1 nM; at Lp-PLA2 in human plasma, no more than 10000 nM.
Take `O=c1nc(OCc2cc(F)c(F)c(F)c2)cc2n1C[C@@H]1CCCN21` [Example E73, (S)-3-((3,4,5-trifluorobenzyl)oxy)-7,8,8a,9-tetrahydropyrrolo[1,2′:3,4]imidazo[1,2-c] pyrimidin-1(6H)-one]: the IC50 was no more than 100 nM in assay [1] and no more than 10000 nM on Lp-PLA2 in human plasma.
Taken in the same sequence, the figures for `O=c1nc(OCc2ccc(F)c(Cl)c2)cc2n1CC1CCCCN21` (stereo not shown) [Example E27, 3-((3-Chloro-4-fluorobenzyl)oxy)-6,7,8,9,9a,10-hexahydro-1H-pyrido[1′,2′:3,4]imidazo[1,2 c]pyrimidin-1-one] were no more than 100 nM and no more than 10000 nM.
For the compound `Cn1cc(Oc2c(F)cc(COc3cc4n(c(=O)n3)C[C@@H]3COCN43)cc2F)cn1` [Example E144, (R)-6-((3,5-difluoro-4-((1-methyl-1H-pyrazol-4-yl)oxy)benzyl)oxy)-10,10a-dihydro-1H-oxazolo[3′,4′:3,4]imidazo[1,2-c]pyrimidin-8(3H)-one], the IC50 in assay [1] was no more than 100 nM; on Lp-PLA2 in human plasma, no more than 10000 nM.
On to `Cc1cc(Oc2c(F)cc(COc3cc4n(c(=O)n3)C[C@H]3CCCN43)cc2F)ccn1` [Example E106, (R)-3-((3,5-difluoro-4-((2-methylpyridin-4-yl)oxy)benzyl)oxy)-7,8,8a,9-tetrahydro pyrrolo[1′,2′:3,4]imidazo[1,2-c]pyrimidin-1(6H)-one], for which the IC50 in assay [1] is no more than 100 nM; at Lp-PLA2 in human plasma it was no more than 10000 nM.
`O=c1nc(OCc2cc(F)c(Oc3cnc(C(F)(F)F)nc3)c(F)c2)cc2n1C[C@@H]1CCCN21` [Example E91, (S)-3-((3,5-difluoro-4-((2-(trifluoromethyl)pyrimidin-5-yl)oxy)benzyl)oxy)-7,8,8a,9-tetra hydropyrrolo[1′,2′:3,4]imidazo[1,2-c]pyrimidin-1(6H)-one]: the results for the IC50 (in assay [1]; on Lp-PLA2 in human plasma) were no more than 1 nM and no more than 100 nM, respectively.
As for `Cn1cc(Oc2c(F)cc(COc3cc4n(c(=O)n3)CC3CCCN43)cc2F)cn1` (stereo not shown) [Example E63, 3-((3,5-Difluoro-4-((1-methyl-1H-pyrazol-4-yl)oxy)benzyl)oxy)-7,8,8a,9-tetrahydro pyrrolo[1′,2′:3, 4] imidazo[1,2-c] pyrimidin-1(6H)-one], the IC50 in assay [1] is no more than 100 nM; at Lp-PLA2 in human plasma, no more than 10000 nM.
Taken in the same sequence, the figures for `N#Cc1cc(COc2cc3n(c(=O)n2)CC2COCCN32)ccc1Oc1ccc(F)c(C(F)(F)F)c1` (stereo not shown) [Example E111, 2-(4-Fluoro-3-(trifluoromethyl)phenoxy)-5-(((9-oxo-1,3,4,9,11,11a-hexahydropyrimido[6′,1′:2,3]imidazo[5,1-c][1,4]oxazin-7-yl)oxy)methyl)benzonitrile] were no more than 1 nM and no more than 100 nM.
